The subject of data set [1] is BR1282 TNBC PDX tumor. Briefly: second PDX combination study (compound of formula (I) first), BR1282. How it is done:
In a second PDX study, the same model was used as for the first study (TNBC BR1282 PDX model), but this time compound of formula (I) (8 mg/kg, i.v., qw, 5 mL/kg) was administered first and carboplatin (60 mg/kg, i.v., qw, 6 mL/kg) second using a 4 h gap between both administrations and compound of formula (I) was provided qw. Consequently, the mice received both compounds on the same day (4 h gap).
(§1) Carboplatin was purchased from Qilu Pharmaceutical Co. Ltd. as a solution (10 mg/mL in 5% (w/v) glucose in pure water). The compound of formula (I) was supplied as a powder by Basilea Pharmaceutica International Ltd. and was prepared freshly as a solution in Ethanol:PEG400:Citric acid 20 mM, at a ratio of 1:1:8 and at a final pH of 3.7, for immediate administration.
(§2) Body weights and tumor volumes were determined at least twice per week, the latter by measuring two dimensions with calipers and applying the formula “V=(L×W^2)/2”, where V is the tumor volume, and L and W are the tumor length and width re-spectively. […] Mice were also culled if the BWL was determined to be >15% for 3 consecutive days. Any mice with >10% BWL, automatically were dosed on one of the following days, as soon as the BWL returned to <10%. All animal protocols were reviewed and approved by the relevant local committees in China, where the studies were performed.
(§3) The statistical significance of efficacy were determined in two different ways using a) the endpoint on day 10 or day 14 depending on the study when it was necessary to cull the vehicle group because of tumor volume exceeding 1500 mm^3, and b) at the endpoint of day 31 in the first study when exponential curve fits were applied to estimate the rates of tumor growth in the different groups. The degree of an effect was quantified by the delta (A) treated/control ratio (ΔT/C) and the statistical significance of the effect was determined by a one-way analysis of variance (1W-ANOVA) with Holms-Sidak applied post-hoc for multiple determinations, where a p-value of <0.05 was considered statistically significant. In addition, an assessment of the combination effect was made based upon the Clarkes Combination Index (CCI), where the CCI=ΔT/CAB−(ΔT/CA*ΔT/CB) in which A and B are two different compounds and AB the combination thereof, where CCI<−0.1 indicates synergy (or a positive interaction), +0.1 (antagonism, or a negative interaction) and between −0.1 and +0.1 indicates additivity (no interaction); see O'Reilly et al. Anti Cancer Drugs 2011; 22:58-78.

Data set [2] concerns SKOV-3 s.c. xenografts. The format is in vivo. The conditions noted are these: day 23; monotherapy: Formula (I) 7 mg/kg iv 2qw; Carboplatin 60 mg/kg iv qw. As to the method:
The anti-tumor activity of the compound of formula (I) in combination with carboplatin was evaluated in an ovarian cancer model, using human SKOV-3 cells grown as a solid tumor xenograft subcutaneously (s.c.) in nude mice.
The maximum tolerated dose (MTD) of the compound of formula (I) in combination with an optimal dose of carboplatin was defined in non-tumor bearing BALB/c nude mice in the experiments described above. […] Thus, in this study, using a human ovarian cell line derived xenograft (CDX) model, that schedule was applied and compared directly with the same order of administration with a 1 hr or 24 hr gap between compounds. In addition, the twice-weekly schedule was compared with a weekly schedule of 7 mg/kg BAL0891 (a weekly dose well below the MTD for compound of formula (I) monotherapy) using a 4 hr gap. Treatments continued until day 24 and tumor volumes and body weight were monitored until day 51.

For data set [3], the system named is BR1282 TNBC PDX tumor. Briefly: first PDX combination study (carboplatin first), BR1282. As to the method: In a first PDX study, female BALB/c nude mice (CrownBio) of at least 20 g body weight were subcutaneously (s.c.) inoculated in the right flank with tumor fragments (3*3*3 mm) from stock mice bearing the patient-derived xenograft (PDX) triple negative breast cancer (TNBC) tumor, BR1282. Randomization into 5 different treatment groups (8 mice per group) was made when the mean tumor size was 150-200 mm^3. Mice were dosed intravenously (i.v.) twice weekly (2qw) with the compound of formula (I) (7 mg/kg, i.v., 5 mL/kg) or once weekly (qw) carboplatin (60 mg/kg, i.v., 10 mL/kg) or the combination of these doses, in which the compound of formula (I) was administered after carboplatin using either a 4 h or a 24 h gap, when both compounds were administered on the same day/consecutive days. The fifth group received both vehicles using the time interval of 4 h and all groups were dosed twice via the tail vein. Dosing was delayed by 1 day in any mice showing transient body weight loss of >10% at any time point.
as §1, §2, §3

[4] abbreviates: comparator Formula (I) monotherapy.

Marks after values point to notes of the source that are not given here.

The values that follow come from patent publication US20250161310A1, “PHARMACEUTICAL COMBINATIONS FOR USE IN THE TREATMENT OF NEOPLASTIC DISEASES” (priority 2022, published 2025).

For the compound `N.N.O=C([O-])C1(C(=O)[O-])CCC1.[Pt+2]` [Carboplatin], the “Efficacy: ΔT/C Day 0 up to Day 17” value in data set [1] (based on mean rate of growth (k), formula (I) 8 mg/kg qw first, carboplatin 60 mg/kg qw 4 h later) is 0.96. In addition, in data set [1] (setting [4]), the “k means, Mean difference, Formula (I) vs. treatment” value is −0.039 and the “Δ tumor volume on day 14, Mean difference, Formula (I) vs. treatment” value was −350.8. Further, in data set [1] (comparator Vehicle), the “k means, Mean difference, Vehicle vs. treatment” value was 0.007 and the “Δ tumor volume on day 14, Mean difference, Vehicle vs. treatment” value amounted to 71.5. The “Efficacy: ΔT/C Day 14” value in data set [1] (mean change in tumor volume, formula (I) 8 mg/kg qw i.v. first, carboplatin 60 mg/kg qw i.v. 4 h later) worked out at 0.93. In addition, in data set [1] (mean fractional body weight change vs vehicle (BWday14/BWday0)), the “Tolerability (Day 14) ΔT/C” value was found to be 1.00. Also, the “Tolerability (Day 14) ΔBW (%)” value in data set [1] (mean ± SEM change in body weight, day 14) is 3.3 ± 2.6%. Besides, the ΔT/C in data set [2] is on record as 0.72. Further, in data set [3] (based on mean rate of growth (k), formula (I) 7 mg/kg 2qw i.v., carboplatin 60 mg/kg qw i.v., carboplatin first), the “Efficacy: ΔT/C Day 0 up to Day 31” value is given as 0.75*. Also, the “Mean difference of mean rate of growth (k), Formula (I) vs. treatment” value in data set [3] (setting [4]) is −0.049. Moreover, in data set [3] (comparator Vehicle, day 0 to latest day 31), the “Mean difference of mean rate of growth (k), Vehicle vs. treatment” value is listed as 0.0350. Further, the “Efficacy: ΔT/C Day 10” value in data set [3] (mean change in tumor volume, formula (I) 7 mg/kg 2qw i.v., carboplatin 60 mg/kg qw i.v., carboplatin first) was 0.74. For the same compound, in data set [3] (mean fractional body weight change vs vehicle (BWday10/BWday0)), the “Tolerability (Day 10) ΔI/C” value is listed as 0.97. The “Tolerability (Day 10) ΔBW (%)” value in data set [3] (mean ± SEM change in body weight, day 10) was 0.8 ± 1.2%.
